Here are results for 22 compounds from US10280179B2, “Spiroquinoxaline derivatives as inhibitors of non-apoptotic regulated cell-death” (Helmholtz Zentrum Munchen—Deutches Forschungszentrum Fur …, priority 2013, dated 2019).

Molecules are shown by their SMILES. Bounds are passed on as bounds.

In one data set the test system is mouse hippocampal cell line (Ht22). Nature of the data set: Inhibition of glutamate-induced non-apoptotic cell death (Example B.2). It counts as cell-based. The following applies: HT-22, Ht22 cells, glutamate-induced cell death, read-out: Ht22/GLU. The text has this:
Inhibition of Glutamate-Induced Non-Apoptotic Cell Death by Compounds of the Present Invention
Glutamate toxicity is conferred on cells from the mouse hippocampal cell line (Ht22) by inhibition of the cysteine/glutamate antiporter, System xc-, leading to impaired cysteine uptake and subsequent GSH depletion. This model is frequently used for mimicking glutathione depletion following oxidative stress in stroke, brain trauma and other neurodegenerative diseases and cellular conditions following ischemia (for example: van Leyen et al, J. Neurochem. 92:824-30 (2005)).
Compounds disclosed herein were evaluated for their ability to promote cell survival upon administration of a lethal dose of glutamate (GLU) to the cell-culture medium.
Briefly, Ht22 cells (ATCC) were propagated DMEM supplemented with 10% FBS/1% Penicillin-Streptomycin, and then seeded onto 96-well plates at a concentration of 2,000 cells/well in 100 μL of MEDIA, simultaneously with glutamate (Sigma Aldrich) to a final concentration of 5 mM, together with increasing concentrations of the compound to be tested (0.5 pM to 100 μM), and the plates incubated at 37° C./5% CO2 for 72 hours. Compound dilutions were prepared from 10 mM stocks dissolved in DMSO and diluted in media. Cells treated with glutamate alone were used as negative control and alpha-tocopherol (Sigma Aldrich) was used as positive control. Compound concentrations were tested in triplicate. After incubation, cell survival was detected and quantified as described in Example B.1.
Consider `CC(CCc1ccccc1)NC1=Nc2ccccc2NC12CCOCC2` (stereo not drawn) [O/S-353], for which the IC50 was under 2000 nM.

Regarding `Cc1cccc(CNC2=Nc3ccccc3NC23CCCCC3)c1` [C-11], the IC50 is under 1000 nM.

Regarding `Clc1ccccc1CNC1=Nc2ccccc2NC12CCSCC2` [O/S-167], the IC50 is under 1000 nM.

Take `Clc1ccc(CNC2=Nc3ccccc3NC23CCSCC3)cc1` [O/S-169]: the IC50 was under 1000 nM.

Regarding `CC(CCc1ccccc1)NC1=Nc2ccccc2NC12CCNCC2` (stereo not drawn) [N-222], the IC50 is under 50 nM.

In the case of `Clc1cc2c(cc1Cl)NC1(CCCCCC1)C(NCc1ccccc1Cl)=N2` [C-243], the IC50 was under 1000 nM.

On to `Fc1cccc(CNC2=Nc3ccccc3NC23CCCCC3)c1` [C-5], for which the IC50 is under 5000 nM.

Consider `Fc1cccc(CNC2=Nc3ccccc3NC23CCNCC3)c1` [N-5], for which the IC50 was under 50 nM.

Consider `COc1cccc(CNC2=Nc3ccccc3NC23CCOCC3)c1` [O/S-14], for which the IC50 was under 5000 nM.

Regarding `c1ccc(CCCCNC2=Nc3ccccc3NC23CCNCC3)cc1` [N-225], the IC50 was under 1000 nM.

On to `CC(NC1=Nc2ccccc2NC12CCOCC2)c1ccccc1` (stereo not drawn) [O/S-348], for which the IC50 was under 5000 nM.

`Clc1cccc(CCNC2=Nc3ccccc3NC23CCOCC3)c1` [O/S-79]: the IC50 was under 1000 nM.

Regarding `FC(F)(F)c1cccc(CNC2=Nc3ccccc3NC23CCSCC3)c1` [O/S-189], the IC50 is under 5000 nM.

Regarding `Clc1cc2c(cc1Cl)NC1(CCCNCC1)C(NCc1ccccc1)=N2` (stereo not drawn) [N-236], the IC50 is under 50 nM.

As to `CC(C)(C)c1ccc(CNC2=Nc3ccccc3NC23CCCCC3)cc1` [C-269], the IC50 is under 500 nM.

As to `CCCCCCCCN1CCC2(CC1)Nc1ccccc1N=C2NCc1ccccc1` [N-234], the IC50 is under 100 nM.

Consider `CN1CCC2(CC1)Nc1ccccc1N=C2NCc1ccc(Cl)cc1` [N-213], for which the IC50 was under 200 nM.

`Cc1cc2c(cc1C)NC1(CCCCC1)C(NCc1ccccc1)=N2` [C-218]: the IC50 was under 100 nM.

For `Fc1cccc(CNC2=Nc3ccccc3NC23CCOCC3)c1` [O/S-5], the IC50 is under 5000 nM.

In the case of `Fc1ccc(CNC2=Nc3ccccc3NC23CCCCC3)c(F)c1` [C-231], the IC50 was under 1000 nM.

Consider `Cc1cccc(CNC2=Nc3cc(Cl)c(Cl)cc3NC23CCCCC3)c1` [C-268], for which the IC50 was under 500 nM.

As to `Clc1cc2c(cc1Cl)NC1(CCCCCC1)C(NCc1ccccc1)=N2` [C-235], the IC50 is under 500 nM.

Another data set concerns Pfa1 cells. Nature of the data set: Inhibition of non-apoptotic cell death after tamoxifen-induced GPx4 knockout in a recombinant cell line (Example B.4). Type of data set: cell-based. The following applies: Mus musculus, read-out: Pfa1/TAM IC50. The source says:
Inhibition of Non-Apoptotic Cell-Death by Compounds Disclosed Herein Using a Recombinant Cell Line
To combat high intracellular ROS levels, mammalian cells have evolved an intricate network of ROS scavenging in cells, in which the thioredoxin and glutathione (GSH) dependent systems prevail. […] Knockout of GPx4 in neurons causes massive neurodegeneration in cortical, cerebellar and hippocampal neurons underscoring the high relevance of ROS-induced cell death signaling in the brain. Briefly, immortalised fibroblasts from these mice were made to contain tamoxifen-inducible CreERT2, which catalyzes the functional ablation of both copies of GPx4 and resulting in a complete knockout of GPx4, a massive ROS burst, and cell death in cell culture. These cells (Pfa1 cells) were used to characterize compounds of the present invention, whereby tamoxifen (TAM) was given on day 0 along with the compound under test, and 72 hours later cell survival was evaluated using AlamarBlue.
On to `CC(CCc1ccccc1)NC1=Nc2ccccc2NC12CCOCC2` (stereo not drawn) [O/S-353], for which the IC50 is under 500 nM.

Consider `Cc1cccc(CNC2=Nc3ccccc3NC23CCCCC3)c1` [C-11], for which the IC50 was under 500 nM.

As to `Clc1ccccc1CNC1=Nc2ccccc2NC12CCSCC2` [O/S-167], the IC50 was under 500 nM.

On to `Clc1ccc(CNC2=Nc3ccccc3NC23CCSCC3)cc1` [O/S-169], for which the IC50 was under 1000 nM.

As for `CC(CCc1ccccc1)NC1=Nc2ccccc2NC12CCNCC2` (stereo not drawn) [N-222], the IC50 was under 200 nM.

Take `Clc1cc2c(cc1Cl)NC1(CCCCCC1)C(NCc1ccccc1Cl)=N2` [C-243]: the IC50 was under 500 nM.

For the compound `Fc1cccc(CNC2=Nc3ccccc3NC23CCCCC3)c1` [C-5], the IC50 was under 500 nM.

Take `Fc1cccc(CNC2=Nc3ccccc3NC23CCNCC3)c1` [N-5]: the IC50 was under 100 nM.

In the case of `COc1cccc(CNC2=Nc3ccccc3NC23CCOCC3)c1` [O/S-14], the IC50 is under 5000 nM.

Take `c1ccc(CCCCNC2=Nc3ccccc3NC23CCNCC3)cc1` [N-225]: the IC50 is under 50 nM.

For the compound `CC(NC1=Nc2ccccc2NC12CCOCC2)c1ccccc1` (stereo not drawn) [O/S-348], the IC50 was under 5000 nM.

With `Clc1cccc(CCNC2=Nc3ccccc3NC23CCOCC3)c1` [O/S-79], the IC50 is under 1000 nM.

Turning to `FC(F)(F)c1cccc(CNC2=Nc3ccccc3NC23CCSCC3)c1` [O/S-189], the IC50 was under 5000 nM.

As to `Clc1cc2c(cc1Cl)NC1(CCCNCC1)C(NCc1ccccc1)=N2` (stereo not drawn) [N-236], the IC50 is under 100 nM.

Regarding `CC(C)(C)c1ccc(CNC2=Nc3ccccc3NC23CCCCC3)cc1` [C-269], the IC50 was under 200 nM.

`CCCCCCCCN1CCC2(CC1)Nc1ccccc1N=C2NCc1ccccc1` [N-234]: the IC50 was under 100 nM.

Turning to `CN1CCC2(CC1)Nc1ccccc1N=C2NCc1ccc(Cl)cc1` [N-213], the IC50 was under 100 nM.

For the compound `Cc1cc2c(cc1C)NC1(CCCCC1)C(NCc1ccccc1)=N2` [C-218], the IC50 was under 100 nM.

For `Fc1cccc(CNC2=Nc3ccccc3NC23CCOCC3)c1` [O/S-5], the IC50 is under 2000 nM.

Turning to `Fc1ccc(CNC2=Nc3ccccc3NC23CCCCC3)c(F)c1` [C-231], the IC50 was under 500 nM.

For `Cc1cccc(CNC2=Nc3cc(Cl)c(Cl)cc3NC23CCCCC3)c1` [C-268], the IC50 is under 100 nM.

Regarding `Clc1cc2c(cc1Cl)NC1(CCCCCC1)C(NCc1ccccc1)=N2` [C-235], the IC50 is under 200 nM.

System in the next data set: not listed separately
Nature of the data set: Cellular toxicity, same assay as Example B.4 without TAM (Example B.5). It counts as cell-based. The following applies: mouse; Pfa1 cells without TAM; read-out: TC50 (the source's name). The source says: Cellular Toxicity of Compounds of the Invention
An estimate of the toxicity for compounds of the invention was obtained by using the same assay as described in Example B.4, but without the addition of TAM. […] Such TC50 values obtained for certain compounds disclosed herein, together with an approximate therapeutic window (estimated by dividing each TC50 by the corresponding IC50 determined from example B.4) are shown in Table 3.
For the compound `CC(CCc1ccccc1)NC1=Nc2ccccc2NC12CCOCC2` (stereo not drawn) [O/S-353], the CC50 lay within 20 to 50 µM.

For the compound `Cc1cccc(CNC2=Nc3ccccc3NC23CCCCC3)c1` [C-11], the CC50 was in the range of 10 to 20 µM.

For the compound `Clc1ccccc1CNC1=Nc2ccccc2NC12CCSCC2` [O/S-167], the CC50 fell in the range of 20 to 50 µM.

As to `Clc1ccc(CNC2=Nc3ccccc3NC23CCSCC3)cc1` [O/S-169], the CC50 is 20 to 50 µM.

Consider `CC(CCc1ccccc1)NC1=Nc2ccccc2NC12CCNCC2` (stereo not drawn) [N-222], for which the CC50 is 20 to 50 µM.

For `Clc1cc2c(cc1Cl)NC1(CCCCCC1)C(NCc1ccccc1Cl)=N2` [C-243], the CC50 was in the range of 10 to 20 µM.

As to `Fc1cccc(CNC2=Nc3ccccc3NC23CCCCC3)c1` [C-5], the CC50 is 20 to 50 µM.

In the case of `Fc1cccc(CNC2=Nc3ccccc3NC23CCNCC3)c1` [N-5], the CC50 fell in the range of 5 to 10 µM.

Turning to `COc1cccc(CNC2=Nc3ccccc3NC23CCOCC3)c1` [O/S-14], the CC50 was in the range of 50 to 100 µM.

Take `c1ccc(CCCCNC2=Nc3ccccc3NC23CCNCC3)cc1` [N-225]: the CC50 lay within 1 to 2 µM.

`CC(NC1=Nc2ccccc2NC12CCOCC2)c1ccccc1` (stereo not drawn) [O/S-348]: the CC50 lay within 50 to 100 µM.

For `Clc1cccc(CCNC2=Nc3ccccc3NC23CCOCC3)c1` [O/S-79], the CC50 lay within 20 to 50 µM.

`FC(F)(F)c1cccc(CNC2=Nc3ccccc3NC23CCSCC3)c1` [O/S-189]: the CC50 was in the range of 50 to 100 µM.

Consider `Clc1cc2c(cc1Cl)NC1(CCCNCC1)C(NCc1ccccc1)=N2` (stereo not drawn) [N-236], for which the CC50 lay in the range of 2 to 5 µM.

`CC(C)(C)c1ccc(CNC2=Nc3ccccc3NC23CCCCC3)cc1` [C-269]: the CC50 was in the range of 5 to 10 µM.

As to `CCCCCCCCN1CCC2(CC1)Nc1ccccc1N=C2NCc1ccccc1` [N-234], the CC50 is 5 to 10 µM.

For the compound `CN1CCC2(CC1)Nc1ccccc1N=C2NCc1ccc(Cl)cc1` [N-213], the CC50 lay in the range of 5 to 10 µM.

Regarding `Cc1cc2c(cc1C)NC1(CCCCC1)C(NCc1ccccc1)=N2` [C-218], the CC50 is 20 to 50 µM.

Regarding `Fc1cccc(CNC2=Nc3ccccc3NC23CCOCC3)c1` [O/S-5], the CC50 was in the range of 50 to 100 µM.

`Fc1ccc(CNC2=Nc3ccccc3NC23CCCCC3)c(F)c1` [C-231]: the CC50 lay within 20 to 50 µM.

Turning to `Cc1cccc(CNC2=Nc3cc(Cl)c(Cl)cc3NC23CCCCC3)c1` [C-268], the CC50 fell in the range of 10 to 20 µM.

On to `Clc1cc2c(cc1Cl)NC1(CCCCCC1)C(NCc1ccccc1)=N2` [C-235], for which the CC50 was in the range of 10 to 20 µM.
